Laboratory results taken from US7025992B2, “Pharmaceutical formulations” (priority 2001, dated 2006).
“Also recorded” adds a separate entry of the source.

Key:
[1] = stated as known; cited from earlier work
[2] = Absorption (AUC) of cannabinoid and primary metabolite in blood after dosing; settings: after oropharyngeal (buccal) administration compared with sublingual
[3] = CBD given before THC, cognitive effects; type: in vivo; settings: CBD (or CBDV) administered before THC; not observed if THC is given before CBD
CB1 (Brain receptors) = CB1 (Brain receptors) (Homo sapiens, UniProt P21554); settings: cited from earlier work
Sequence of CB1 (Brain receptors) (P21554 whole entry, species assumed): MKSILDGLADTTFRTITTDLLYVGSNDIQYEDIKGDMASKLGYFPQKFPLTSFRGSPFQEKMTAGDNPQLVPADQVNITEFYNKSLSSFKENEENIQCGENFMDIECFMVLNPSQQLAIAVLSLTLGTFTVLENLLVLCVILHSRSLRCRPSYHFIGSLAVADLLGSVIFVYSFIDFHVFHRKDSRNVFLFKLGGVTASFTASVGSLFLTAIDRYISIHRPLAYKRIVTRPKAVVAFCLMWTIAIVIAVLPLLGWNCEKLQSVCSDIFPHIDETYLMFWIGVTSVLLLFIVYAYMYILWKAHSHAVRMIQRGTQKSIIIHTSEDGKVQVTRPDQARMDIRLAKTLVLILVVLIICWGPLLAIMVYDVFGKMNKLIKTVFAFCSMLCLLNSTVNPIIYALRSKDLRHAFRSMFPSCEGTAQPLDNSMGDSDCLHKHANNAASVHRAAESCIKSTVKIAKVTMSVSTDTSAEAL

[4] = Stability on storage, assay as percentage of initial value; type: physicochemical; settings: for stability in the formulation (in words): conclusion from Table 5
Excerpt: The data are reported as percentage of initial assay value.

[5] = Table 3; Brown, 1998; cited from earlier work
[6] = Solubility of cannabinoids
[7] = Table 3 footnote; naïve patients may show postural hypotension, hypertension reported on prolonged usage; cited from earlier work
[8] = Table 3 footnote; cited from earlier work
[9] = Pain relief, THC alone vs extract of cannabis; type: in vivo; settings: THC alone vs same quantity of THC given as an extract of cannabis
[10] = Subject reports on THCV (mood enhancement, hangover); type: in vivo; settings: compared with THC
[11] = Analgesic effect of THCV vs THC; type: in vivo; settings: compared with THC

CCCCCc1cc(O)c2c(c1)OC(C)(C)[C@@H]1CCC(CO)=C[C@@H]21 [11 OH THC]
psychoactivity relative to parent compound [1]: possibly more psychoactive than the parent compound | reduction in the amount of 11 OH metabolite detected [2]: approximately 25%

C=C(C)[C@@H]1CCC(C)=C[C@H]1c1c(O)cc(CCCCC)cc1O [CBD, cannabidiol]
psychoactive effects of THC [3]: diminished | subsequent sedation [3]: postponed and mitigated | CB1 (Brain receptors) (CB1 (Brain receptors)): ∀ | stability in the formulation (in words) [4]: good stability | effect as pharmaceutical stabilizer ([4]; observation of the applicants): able to act as a pharmaceutical stabilizer of pharmaceutical formulations and thus prolong shelf-life | Anti-inflammatory [5]: ∀ | solubility in aqueous excipients [6]: very low solubility

C=C(C)[C@@H]1CCC(C)=C[C@H]1c1c(O)cc(CCC)cc1O [CBDV, cannabidivarin]
psychoactive effects of THC [3]: diminished | subsequent sedation [3]: postponed and mitigated

CCCCCc1cc(O)c2c(c1)OC(C)(C)[C@@H]1CCC(C)=C[C@@H]21 [THC, Δ^9-tetrahydrocannabinol]
effect on blood pressure (footnote ′) [7]: ′ THC has a biphasic effect on blood pressure; in naïve patients it may produce postural hypotension and it has also been reported to produce hypertension on prolonged usage. GW Internal Report No 002/000159. | stability in the formulation (in words) [4]: less stable | convulsant effect (footnote H to Anticonvulsant) [8]: H THC is pro convulsant | degree of pain relief [9]: lower degree of pain relief than the same quantity of THC given as an extract of cannabis | Anti-inflammatory [5]: ∀ | solubility in aqueous excipients [6]: very low solubility | amount of THC that could be stabilised ([6]; aerosol sprays containing ethanol plus a propellant): 0.7 mg of THC per 0.1 ml of liquid formulation

CCCc1cc(O)c2c(c1)OC(C)(C)[C@@H]1CCC(C)=C[C@@H]21 [THCV, tetrahydrocannabinovarin]
hangover [10]: less severe hangover; also recorded: reduced potential for hangover | mood enhancement ([10]; reported by subjects taking THCV): less disturbing than that produced by THC | analgesic effect, speed [11]: more rapid analgesic effect than THC
